{
  "source": "patent US20220257552A1",
  "about": "“METHODS OF PRESCREENING AND TREATING BREAST CANCERS WITH SELECTIVE ANDROGEN RECEPTOR MODULATORS” (priority 2021, published 2022)",
  "key": {"MDA-MB-231-AR tumors": {"test_system": "MDA-MB-231-AR tumors", "test": "Affymetrix microarray of MDA-MB-231-AR tumors", "assay_type": "in vivo, mice", "protocol": "RNA was extracted from MDA-MB-231-AR tumors (n=5/group) treated with vehicle or compound of Formula VIII. RNA was pooled and Affymetrix microarray was performed to determine the change in expression of gene signature.\nMicroarray Analysis was performed on RNA from MDA-MB-231-AR and MCF-7-AR tumors in order to identify and compare changes in gene expression in ER-negative (MDA-MB-231-AR; triple negative) an ER-positive (MCF-7-AR; triple positive) breast cancer tumors treated with a compound of Formula VIII (30 mg/kg/day p.o. for 4 weeks). Affymetrix analysis of the xenografts was done on pooled samples of the xenografts. The analysis included ˜70,000 sequences with ˜30,000 genes and variations thereof represented, as well as microRNA's. RNA was isolated and expression of genes was evaluated using microarray (Affymetrix Human Gene ST 2.0 array). Expression of genes in compound of Formula VIII-treated samples was compared with the expression in vehicle-treated samples."}, "BR-0001 TNBC": {"test_system": "BR-0001 TNBC", "test": "BR-0001 AR-positive TNBC xenograft in NSG mice", "assay_type": "in vivo", "protocol": "Xenograft experiment. NSG mice obtained from JAX labs were housed with five animals per cage and were allowed free access to tap water and commercial rat chow (Harlan Teklad 22/5 rodent diet—8640). During the course of the study, the animals were maintained on a 12 hr light:dark cycle. Animals were anesthetized and BR-0001 TNBC fragments of 1 mm^3 (approximately) were implanted subcutaneously in NSG mice. […] Tumor volume was measured thrice weekly. Tumor volume was calculated using the formula length×width×width×0.5236. Once tumors reached greater than 1500-2000 mm^3, animals were sacrificed and tumors weighted and stored for various analysis. Two regions of the same BR-0001 tumor, an AR-positive TNBC xenograft, were immunohistochemically stained with AR antibody (AR N20 from SCBT) (FIGS. 26A and 26B) and compared to an AR-negative (FIG. 26C) TNBC as a negative control. […] The tumor xenograft efficacy experimental results are provided in 27A-27C, with FIGS. 27A and 27B being replicate experiments.\nTumors from replicate experiment 2 (FIG. 27B) were fixed in formalin and paraffin embedded. Slides were cut and stained with Ki-67 antibody. Ki-67 positive cells (total 200 cells were counted in each slide) in each slide were counted and represented as % stained cells, as shown in FIG. 28B."}, "[1]": {"test": "Completed and ongoing clinical studies, tolerability", "assay_type": "in vivo, human", "details": "single doses up to 100 mg, multiple doses up to 30 mg once daily up to 14 days", "from_the_text": "These include: 1. Protocol G100401, a Phase 1 single ascending dose study in 96 healthy, young, male volunteers; 2. Protocol G100402, a Phase 1 multiple ascending dose study in 50 healthy, young, male volunteers, and 23 elderly male volunteers with truncal obesity; 3. Protocol G100503, a Phase 1 single dose pharmacokinetic study to assess the effect of a dosage regimen that simulates a sustained release formulation to an immediate release formulation in 18 healthy, young male volunteers and 18 postmenopausal women; 4. Protocol G100506, a Phase 1 single dose pharmacokinetic study to assess the relative bioavailability of a 3 mg hard shell capsule formulation to be used during continued clinical development and to assess the effect of food on the pharmacokinetics of the 3 mg softgel formulation in 27 healthy, young, male volunteers; 5. Protocol 006, a Phase 1 single dose and multiple dose pharmacokinetic study in 24 postmenopausal, Japanese women; 6. Protocol G200501, a Phase 2 study in 60 postmenopausal women and 60 elderly men to assess lean body mass and physical function; 7. Protocol 003, a Phase 1b study in 44 postmenopausal women; 8. Protocol G200502, a Phase 2b study in 159 men and postmenopausal women with cancer to assess lean body mass and physical function; 9."}, "[2]": {"test_system": "ZR-75-1 breast cancer cells", "test": "ZR-75-1 cell proliferation (cell count)", "assay_type": "cell-based", "details": "6 days, dose response", "protocol": "Cells were plated at varying densities in growth medium in 96 well plates. Cells were treated as indicated in the figures and viability measured using sulforhodamine B (SRB) or the number of cells counted using Coulter counter.\nAlthough a few previous reports have shown that MCF-7 cells express AR and respond to AR ligands (Buchanan et al. (2005) Cancer Res 65, 8487-8496), the MCF-7 cell line clone in the study lacks or minimally expresses AR, which is in concordance with other reports (De Amicis et al. (2010) Breast Cancer Res Treat 121, 1-11)."}, "[3]": {"test_system": "breast cancer specimens obtained from patients", "test": "Breast cancer patient specimens, ex vivo sponge culture", "assay_type": "cell-based, human", "protocol": "Specimens from breast cancer patients were collected with patient consent under a protocol approved by the UTHSC Institutional Review Board (IRB). Specimens were collected immediately after surgery in RPMI medium containing penicillin:streptomycin and Fungizone and transported to the laboratory on ice. The tissues were finely minced and treated with collagenase for 2 hours.\nHCI-13 tumors grown in female mice were allowed to reach 500-1000 mm^3 before the animals were sacrificed and the tumors were excised to be used for sponge culture. Patient specimens frozen in liquid nitrogen in freezing medium were used for sponge culture. […] Tumors were sliced into small pieces (˜1 mm^3) and incubated on pre-soaked gelatin sponges (5 fragments/sponge) in 12 well plates containing 1.5 mL medium (MEM+10% FBS+2 mM L-glutamine+10 μg/mL insulin+10 μg/mL hydrocortisone+penicillin:streptomycin). The cultures were performed in triplicates for HCI-13 and singly for patient specimens. Pooled samples (n=5/sponge) from each sponge constituted one sample. Tissues were harvested after 3 days of treatment, RNA extracted, and expression of various genes measured. Although the same procedure was adopted for specimens obtained from breast cancer patients, the specimens were cultured singly (n=5/sponge=one sample) and not in triplicates as performed for HCI-13.\nLike other cancers, breast cancer is also heterogeneous in its genomic profile as well as in its response to treatments. […] Three days after treatment, RNA was isolated from the tissues and expression of ER- and AR-target genes was measured."}},
  "data": [
    {"smiles": "C[C@](O)(COc1ccc(C#N)cc1)C(=O)Nc1ccc(C#N)c(Cl)c1", "note": "[Formula VIII, (S)—N-(3-chloro-4-cyanophenyl)-3-(4-cyanophenoxy)-2-hydroxy-2-methylpropanamide]", "values": [
      {"measurement": "Aurora kinase expression", "setting": "MDA-MB-231-AR tumors; Table 8", "result": "Decreased"},
      {"measurement": "BUB1 S/T kinase expression", "setting": "MDA-MB-231-AR tumors; Table 8", "result": "Decreased"},
      {"measurement": "CENPE expression", "setting": "MDA-MB-231-AR tumors; Table 8", "result": "Decreased"},
      {"measurement": "EHMT2 expression", "setting": "MDA-MB-231-AR tumors; Table 8", "result": "Decreased"},
      {"measurement": "ERCC1 expression", "setting": "MDA-MB-231-AR tumors; Table 8", "result": "Decreased"},
      {"measurement": "IGFBP3 expression", "setting": "MDA-MB-231-AR tumors; Table 8", "result": "Decreased"},
      {"measurement": "ITGA2 expression", "setting": "MDA-MB-231-AR tumors; Table 8", "result": "Decreased"},
      {"measurement": "NQO1 expression", "setting": "MDA-MB-231-AR tumors; Table 8", "result": "Increased"},
      {"measurement": "PARP1 expression", "setting": "MDA-MB-231-AR tumors; Table 8", "result": "Decreased"},
      {"measurement": "POLD1 expression", "setting": "MDA-MB-231-AR tumors; Table 8", "result": "Decreased"},
      {"measurement": "PTPRJ expression", "setting": "MDA-MB-231-AR tumors; Table 8", "result": "Increased"},
      {"measurement": "β-Adrenoceptor2 expression", "setting": "MDA-MB-231-AR tumors; Table 8", "result": "Decreased"},
      {"measurement": "FKBP51 induction", "setting": "MDA-MB-231-AR tumors; Table 10", "result": "∞"},
      {"measurement": "IRS2 induction", "setting": "MDA-MB-231-AR tumors; Table 10", "result": 4.40, "unit": "Fold"},
      {"measurement": "MUC1 induction", "setting": "MDA-MB-231-AR tumors; Table 10", "result": 9, "unit": "Fold"},
      {"measurement": "PTGS2 induction", "setting": "MDA-MB-231-AR tumors; Table 10", "result": 14, "unit": "Fold"},
      {"measurement": "SNAI2/SLUG induction", "setting": "MDA-MB-231-AR tumors; Table 10", "result": 2.10, "unit": "Fold"},
      {"measurement": "genes Up", "setting": "MDA-MB-231-AR tumors; more than 2 fold vs vehicle", "result": 720}
    ]},
    {"smiles": "C[C@](O)(COc1ccc(C#N)cc1)C(=O)Nc1ccc(C#N)c(C(F)(F)F)c1", "note": "[Formula IX, (S)—N-(4-Cyano-3-(trifluoromethyl)phenyl)-3-(4-cyanophenoxy)-2-hydroxy-2-methylpropanamide]", "values": [
      {"measurement": "tumor growth", "setting": "BR-0001 TNBC; 10 mg/kg/day Formula IX or enzalutamide orally", "result": "some tumor growth inhibition"},
      {"measurement": "tumor weight reduction", "setting": "BR-0001 TNBC; experiment 2", "result": "~40", "unit": "%"},
      {"measurement": "tolerability", "setting": "[1]", "result": "generally well-tolerated"},
      {"measurement": "proliferation", "setting": "[2]", "result": "significantly reduced dose dependently"},
      {"measurement": "specimens in which AR agonist activity was observed", "setting": "[3]; 1 μM", "result": "4 of 8"},
      {"measurement": "specimens in which ER function was inhibited", "setting": "[3]; 1 μM Formula IX, 100 nM fulvestrant, 3 days", "result": "3 of 8"}
    ]}
  ]
}
